How the values were obtained:
BTK in mouse bone marrow = BTK in mouse bone marrow (Mus musculus (Mouse), UniProt P35991); assay: Mouse Bone Marrow Assay (MSD ELISA of BTK degradation in mouse bone marrow); format: in vivo; details: female C57BL/6J mice, single dose of Dose A, bone marrow collected after 24 hours, % remaining BTK in vehicle versus treated samples
Protocol: Female C57BL/6J mice (Jackson Laboratories) were used for this study. Compounds or vehicle/control were prepped with EtOH; PEG-400; Phosal 53 MCT (10:30:60, v/v). Four mice were tested per compound or vehicle/control. On Day 1, mice were administered a single dose of Dose A. On Day 2 (after 24 hours), tissue (bone marrow) was collected from one hind leg per mouse.
An MSD (Meso Scale Discovery) ELISA (enzyme-linked immunosorbent assay) based assay was used to determine BTK degradation in mouse bone marrow. The following materials and equipment were used: 10% NP40 solution (nonionic polyoxyethylene surfactant, ThermoFisher, cat no. 28324); protease inhibitor mini tablet (Roche, cat no. 05 892 970 001); PhosphoSTOP™ tablet (Roche, cat no. 04 906 837 001); Pierce™ BCA Protein Assay Kit (Thermofisher, Cat No. 23225); Precellys® 2 mL lysing tube with 2.8 mm beads (VWR, cat no. 10032-756); Bertin Precellys® 24/Cryolys ® cooling system; 96-well MSD streptavidin pre-coated plates (MSD, cat no. L15SA-1); MSD Blocker A (MSD, cat no. R93BA-4); capture antibody, biotinylated BTK mAb (BD Biosciences, cat no. 624008; custom order); primary detection antibody, BTK RpAb (rabbit polyclonal antibody, CST, cat no. 8547S, D3H5 clone); secondary detection antibody, anti-Rabbit-Sulfo-Tag (MSD, cat no. R32AB-1); read Buffer, 4× (MSD, cat no. R92TC-1); recombinant BTK protein (Thermofisher, cat no. PR5442A); MSD Tris Wash Buffer (10×) (MSD, cat no. R61TX-1); PBS (phosphate-buffered saline); deionized water (diH2O); Lysis Buffer [0.2% NP40 in PBS+Protease Inhibitor tablet (1 tablet/10 mL)+PhosphoSTOP tablet (1 tablet/10 mL)]; 3% MSD Blocker A [MSD Blocker A+450 mL diH2O+50 mL]; and 10× MSD Tris Wash Buffer.
Lysis buffer [(PBS+0.2% NP40+PI (protease inhibitor)+PhosphoSTOP)]was prepared and put on ice until it was fully cold. Ice cold lysis buffer […] was added to each Precellys® tube containing beads and bone marrow sample. Sample tubes were transferred into Precellys® machine and homogenized using 5000 rpm -2×20 seconds. The sample lysates were centrifuged at 14,000 rpm for 20 minutes at 4° C. after homogenizing.
The protein concentration was determined using Pierce™ BCA Protein Assay Kit following manufacturer's recommended protocol. The protein normalized working solution was prepared, using 30 μg protein per sample lysate for assay.
A 300 ng/ml working stock solution of recombinant BTK protein in lysis buffer was prepared, and the sample was serially diluted at 3-fold dilution (10-point assay, highest concentration was 300 ng/mL and lowest concentration was 0.015 ng/mL)
MSD plate coating: Coating antibody (biotinylated-BTK mAb) stock solution was prepared at 1 μg/mL in PBS buffer. 50 μL/well capture antibody (Biotinylated BTK mAb) solution was added, and the plates were shaken gently at ambient temperature for two hours. The plates were washed 3 times with 1× MSD Tris Wash Buffer in a plate washer (300 μL/well), and the plates were blocked with 3% MSD Blocker A (150 μL/well). The plates were incubated for an additional 1-2 hours at ambient temperature with gentle shaking. The plates were washed 3 times with 1× MSD wash buffer using plate washer. Bone marrow lysates (30 μg) at a final volume of 50 μL/well were added into the plates. The serially diluted standard samples were added to the same plates at a final volume of 50 μL/well. The plates were incubated overnight at 4° C. with gentle shaking.
The plates were washed three times with 1× MSD wash buffer (prepared from 10× concentration buffer) using plate washer. Primary detection antibody at 50 μL/well was added (BTK RpAb; 1:1000 dilution in 1% MSD Blocker A). The plates were incubated for two hours at ambient temperature with gentle shaking. The plates were washed three times with 1× MSD wash buffer using plate washer. Anti-Rabbit-SULFO-TAG secondary antibodies (50 μl/well) were added, 1:500 diluted in 1% MSD Blocker A, and the plates were incubated for one to two hours at ambient temperature. […]

[1] = target: BTK protein in human whole blood (Homo sapiens (Human), UniProt Q06187); assay: Btk protein in human whole blood MSD ELISA based assay (Btk degradation); format: cell-based; details: human whole blood from healthy donors, 6 hours at 37° C., half maximal degradation concentration; read-out: hWB BTK DC50
Protocol: Btk protein degradation was tested using an Meso Scale Discovery-ELISA system (MSD-ELISA): (1) Test compounds were added to human whole blood; (2) human whole blood cells treated with test compounds were lysed; (3) lysed cells were treated with capture antibody, an antibody to Btk; (4) lysed cells were treated with […] to Btk; and (5) lysed cells were treated with anti-mouse antibody (tagged).
Specifically, about 80 μl of fresh human whole blood from healthy donors was transferred into each well of a 96-well V-bottom plate (Costar, Cat No.3894). Using a TECANTM D300e Digital Dispenser (Tecan)), 1:4 serially diluted compounds [(8 pt assay) in DMSO solution (final 0.2%) starting at 3 μM top concentration], were added in duplicate. Thereafter, plates were placed in a 37° C. incubator and incubated for 6 hours.
At the end of incubation, 80 μl of 2× CST lysis buffer (Cell Signaling Technology, Cat No. 9803), prepared from a 10× stock solution, was added per well to lyse the blood. Plates were then sealed with a plate sealer and the samples were frozen overnight at −80° C.
Total amount of BTK protein remaining in the blood samples after compound treatment was measured using MSD-ELISA. After thawing the frozen plates, blood lysates were mixed thoroughly and transferred to small spot high-bind MSD plates (Meso Scale Discovery, Cat No. L45XB-3) and coated with capturing antibody, rabbit anti-human BTK (D3H5) (Cell Signaling Technology, Cat No. 8547CF). Thereafter, primary detection antibody, mouse anti-human BTK monoclonal antibody, (BD Biosciences, Cat No. 611117) and secondary detection antibody, anti-mouse SULFO-TAG (Meso Scale Discovery, Cat No. R32AC-1) were added. The assay plates were read on an MSD S600 plate reader by the addition of 2× MSD read buffer (Meso Scale Discovery, R92TC-1). All reagent transfers, including blood lysis, was conducted using a Biomed i7 liquid handler. From the dose response curves, DC50 values were calculated by averaging data from duplicate experiments. and Curve fitting was done by non-linear regression using GraphPad Prism. The DC50 values are reported in Table 2 in the hWB BTK DC50 (nM) column The Dmax values represent the maximum amount of BTK degradation observed upon compound treatment compared to DMSO only treated samples. The dMax (%) values are reported in Table 2 in the hWB BTK dMax (%) column.

Sequence of BTK protein in human whole blood (Q06187 whole entry): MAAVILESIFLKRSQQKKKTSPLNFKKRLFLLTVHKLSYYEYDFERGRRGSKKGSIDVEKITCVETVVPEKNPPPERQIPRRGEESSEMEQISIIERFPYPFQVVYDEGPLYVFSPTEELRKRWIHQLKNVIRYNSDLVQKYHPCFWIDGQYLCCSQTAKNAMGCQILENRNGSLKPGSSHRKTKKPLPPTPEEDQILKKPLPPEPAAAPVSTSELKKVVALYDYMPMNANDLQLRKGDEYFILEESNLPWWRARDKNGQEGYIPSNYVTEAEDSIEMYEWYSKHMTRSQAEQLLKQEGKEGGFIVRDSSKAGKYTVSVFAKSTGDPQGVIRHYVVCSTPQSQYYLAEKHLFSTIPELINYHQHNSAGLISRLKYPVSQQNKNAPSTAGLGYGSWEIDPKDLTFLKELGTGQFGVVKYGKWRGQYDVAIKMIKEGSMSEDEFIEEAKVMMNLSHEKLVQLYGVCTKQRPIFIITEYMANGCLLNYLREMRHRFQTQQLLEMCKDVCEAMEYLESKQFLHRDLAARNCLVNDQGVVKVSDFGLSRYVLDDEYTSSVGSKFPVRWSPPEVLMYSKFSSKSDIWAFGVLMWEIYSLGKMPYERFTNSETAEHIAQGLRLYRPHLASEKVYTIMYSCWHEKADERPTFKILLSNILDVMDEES
Sequence of BTK in mouse bone marrow (P35991 whole entry): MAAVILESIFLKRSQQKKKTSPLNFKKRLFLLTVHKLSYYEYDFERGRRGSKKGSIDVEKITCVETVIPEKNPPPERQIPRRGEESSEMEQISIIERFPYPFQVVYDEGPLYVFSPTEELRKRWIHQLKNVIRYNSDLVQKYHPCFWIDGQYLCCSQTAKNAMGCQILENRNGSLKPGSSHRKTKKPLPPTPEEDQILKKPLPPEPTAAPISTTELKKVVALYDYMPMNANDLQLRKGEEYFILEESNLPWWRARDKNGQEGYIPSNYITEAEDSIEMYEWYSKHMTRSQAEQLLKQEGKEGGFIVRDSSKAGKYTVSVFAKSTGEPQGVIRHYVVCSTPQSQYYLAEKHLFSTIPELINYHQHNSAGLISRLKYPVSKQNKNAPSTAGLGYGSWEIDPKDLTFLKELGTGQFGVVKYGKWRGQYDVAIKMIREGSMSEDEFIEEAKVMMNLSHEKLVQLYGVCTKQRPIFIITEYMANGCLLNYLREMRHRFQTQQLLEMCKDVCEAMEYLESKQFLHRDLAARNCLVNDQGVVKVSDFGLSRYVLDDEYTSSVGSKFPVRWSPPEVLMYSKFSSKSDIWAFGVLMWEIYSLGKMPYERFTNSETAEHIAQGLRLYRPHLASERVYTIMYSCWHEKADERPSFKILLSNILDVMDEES

Row | Mouse Bone Marrow (%), % remaining BTK (BTK in mouse bone marrow) [%] | DC50 [1] [nM] | Compound
1 | 25 | 15.6 | Cc1cc(-c2cc(Nc3ccc(N4CCN(CCc5ccc(N6CCC(=O)NC6=O)cc5)C[C@@H]4C)cc3)ncn2)ccc1[C@@H](C)NC(=O)c1nc(C(C)(C)C)no1 [Example 18]
2 | 22 | 2.88 | Cc1cc(-c2cc(Nc3ccc(N4CCN(CCc5ccc(N6CCC(=O)NC6=O)cc5)CC4)cn3)ncn2)ccc1[C@@H](C)NC(=O)c1nc(C(C)(C)C)no1 [Example 3, 3-tert-butyl-N-{(1R)-1-[4-(6-{[5-(4-{2-[4-(2,4-dioxo-1,3-diazinan-1-yl)phenyl]ethyl}piperazin-1-yl)pyridin-2-yl]amino}pyrimidin-4-yl)-2-methylphenyl]ethyl}-1,2,4-oxadiazole-5-carboxamide]
3 | 51 | 3 | Cc1cc(-c2cc(Nc3ccc(CCN4CCN(c5ccc(N6CCC(=O)NC6=O)cc5)CC4)cn3)ncn2)ccc1[C@@H](C)NC(=O)c1nc(C(C)(C)C)no1 [Example 19]
4 | 16 | 7.91 | C[C@@H](NC(=O)c1nc(C(C)(C)C)no1)c1ccc(-c2cc(Nc3ccc(N4CCN(CCc5ccc(N6CCC(=O)NC6=O)cc5)C[C@@H]4C)cn3)ncn2)cc1Cl [Example 14, 3-tert-butyl-N-[(1R)-1-{2-chloro-4-[6-({5-[(2S)-4-{2-[4-(2,4-dioxo-1,3-diazinan-1-yl)phenyl]ethyl}-2-methylpiperazin-1-yl]pyridin-2-yl}amino)pyrimidin-4-yl]phenyl}ethyl]-1,2,4-oxadiazole-5-carboxamide]
5 | 17 | 2.27 | Cc1cc(-c2cc(Nc3ccc(N4CCN(CCc5ccc(N6CCC(=O)NC6=O)cc5)CC4)cn3)ncn2)c(F)cc1[C@@H](C)NC(=O)c1nc(C(C)(C)C)no1 [Example 12, 3-tert-butyl-N-{(1R)-1-[4-(6-{[5-(4-{2-[4-(2,4-dioxo-1,3-diazinan-1-yl)phenyl]ethyl}piperazin-1-yl)pyridin-2-yl]amino}pyrimidin-4-yl)-5-fluoro-2-methylphenyl]ethyl}-1,2,4-oxadiazole-5-carboxamide]
6 | 12 | 6 | Cc1cc(-c2cc(Nc3ccc(N4CCN(CCc5ccc(N6CCC(=O)NC6=O)c(F)c5)C[C@H]4C)cn3)ncn2)ccc1[C@@H](C)NC(=O)c1nc(C(C)(C)C)no1 [Example 5, 3-tert-butyl-N-[(1R)-1-{4-[6-({5-[(2R)-4-{2-[4-(2,4-dioxo-1,3-diazinan-1-yl)-3-fluorophenyl]ethyl}-2-methylpiperazin-1-yl]pyridin-2-yl}amino)pyrimidin-4-yl]-2-methylphenyl}ethyl]-1,2,4-oxadiazole-5-carboxamide]
7 | 11 | 4.08 | Cc1cc(-c2cc(Nc3ccc(N4CCN(CCc5ccc(N6CCC(=O)NC6=O)cc5)C[C@@H]4C)cn3)ncn2)ccc1[C@@H](C)NC(=O)c1nc(C(C)(C)C)no1 [Example 1, 3-tert-butyl-N-[(1R)-1-{4-[6-({5-[(2S)-4-{2-[4-(2,4-dioxo-1,3-diazinan-1-yl)phenyl]ethyl}-2-methylpiperazin-1-yl]pyridin-2-yl}amino)pyrimidin-4-yl]-2-methylphenyl}ethyl]-1,2,4-oxadiazole-5-carboxamide]
8 | 12 | 5.93 | Cc1cc(-c2cc(Nc3ccc(N4CCN(CCc5ccc(N6CCC(=O)NC6=O)cc5)C[C@H]4C)cn3)ncn2)ccc1[C@@H](C)NC(=O)c1nc(C(C)(C)C)no1 [Example 2, 3-tert-butyl-N-[(1R)-1-{4-[6-({5-[(2R)-4-{2-[4-(2,4-dioxo-1,3-diazinan-1-yl)phenyl]ethyl}-2-methylpiperazin-1-yl]pyridin-2-yl}amino)pyrimidin-4-yl]-2-methylphenyl}ethyl]-1,2,4-oxadiazole-5-carboxamide]
